From PubChem BioAssay AID624009 (Vanderbilt Specialized Chemistry Center, 2012)
Activity calls are given as the source filed them. No rule for the calls is given here.

Target: Phospholipase D2 (Homo sapiens) + Phospholipase D2 (Homo sapiens) (UniProt O14939+O14939)
Assay: phospholipase D2 activity inhibition in cells – cell-based, HEK293 overexpressing PLD2, Lib32, assay 1B (AID 624009)
Details: HEK293 cells overexpressing PLD2, cellular PLD activity; active compounds read low; concentration not given here

Sequence of Phospholipase D2 (Homo sapiens) + Phospholipase D2 (Homo sapiens) (O14939 whole entry, looked up): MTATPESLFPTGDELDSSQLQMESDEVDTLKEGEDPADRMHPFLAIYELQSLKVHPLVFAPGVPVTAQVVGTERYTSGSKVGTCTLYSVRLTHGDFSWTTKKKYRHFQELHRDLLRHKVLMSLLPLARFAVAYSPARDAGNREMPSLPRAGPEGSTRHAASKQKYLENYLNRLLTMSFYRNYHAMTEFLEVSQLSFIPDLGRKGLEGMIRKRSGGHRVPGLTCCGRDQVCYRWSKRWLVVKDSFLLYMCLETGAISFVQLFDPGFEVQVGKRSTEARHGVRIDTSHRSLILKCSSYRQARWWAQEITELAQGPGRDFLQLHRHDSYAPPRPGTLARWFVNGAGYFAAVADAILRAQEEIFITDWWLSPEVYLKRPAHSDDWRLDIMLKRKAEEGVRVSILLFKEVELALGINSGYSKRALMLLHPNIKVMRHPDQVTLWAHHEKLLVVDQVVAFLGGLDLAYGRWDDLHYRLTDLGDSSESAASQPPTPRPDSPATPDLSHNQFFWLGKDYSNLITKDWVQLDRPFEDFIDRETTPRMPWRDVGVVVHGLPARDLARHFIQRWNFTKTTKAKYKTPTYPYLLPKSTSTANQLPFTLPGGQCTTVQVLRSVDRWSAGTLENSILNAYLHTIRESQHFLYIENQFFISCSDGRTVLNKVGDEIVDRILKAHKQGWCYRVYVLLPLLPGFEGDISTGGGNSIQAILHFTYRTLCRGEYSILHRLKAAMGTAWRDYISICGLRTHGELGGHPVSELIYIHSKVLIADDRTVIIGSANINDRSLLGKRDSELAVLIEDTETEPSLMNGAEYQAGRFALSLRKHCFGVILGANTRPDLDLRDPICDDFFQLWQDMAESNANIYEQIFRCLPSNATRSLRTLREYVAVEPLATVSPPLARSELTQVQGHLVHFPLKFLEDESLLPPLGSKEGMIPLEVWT
Sequence of Phospholipase D2 (Homo sapiens) + Phospholipase D2 (Homo sapiens) (O14939 whole entry, looked up): as above

| SMILES | remaining activity |
| --- | --- |
| COc1cc(C(=O)NCCN2CCC3(CC2)C(=O)NCN3c2cccc(F)c2)cc(OC)c1OC | 46.7% |
| C[C@@H](CN1CCC2(CC1)C(=O)NCN2c1cccc(F)c1)NC(=O)c1cccc([N+](=O)[O-])c1 | 74.9% (inactive) |
| C[C@@H](CN1CCC2(CC1)C(=O)NCN2c1cccc(F)c1)NC(=O)c1ccc(F)cc1 | 33.3% |
| O=C(NCCN1CCC2(CC1)C(=O)NCN2c1cccc(F)c1)c1c(F)ccc(F)c1Cl | 85% (inactive) |
| O=C(NCCN1CCC2(CC1)C(=O)NCN2c1cccc(F)c1)c1ccc(F)cc1F | 111% (inactive) |
| C[C@@H](CN1CCC2(CC1)C(=O)NCN2c1cccc(F)c1)NC(=O)c1ccc(Br)cc1 | 26.6% |
| C[C@@H](CN1CCC2(CC1)C(=O)NCN2c1cccc(F)c1)NC(=O)c1ccc(Cl)cc1Cl | 81.5% (inactive) |
| C[C@@H](CN1CCC2(CC1)C(=O)NCN2c1cccc(F)c1)NC(=O)c1c(F)ccc(F)c1Cl | 94.8% (inactive) |
| C[C@@H](CN1CCC2(CC1)C(=O)NCN2c1cccc(F)c1)NC(=O)c1cccc(F)c1 | 53.3% |
| C[C@@H](CN1CCC2(CC1)C(=O)NCN2c1cccc(F)c1)NC(=O)c1c(F)cccc1F | 106% (inactive) |
| COc1cc(C(=O)N[C@@H](C)CN2CCC3(CC2)C(=O)NCN3c2cccc(F)c2)cc(OC)c1OC | 34.8% |
| O=C(NCCN1CCC2(CC1)C(=O)NCN2c1cccc(F)c1)c1ccc(Br)cc1 | 39.2% |
| C[C@@H](CN1CCC2(CC1)C(=O)NCN2c1cccc(F)c1)NC(=O)c1ccc(F)c(F)c1 | 22.8% |
| O=C(NCCN1CCC2(CC1)C(=O)NCN2c1cccc(F)c1)c1cccc2ccccc12 | 96.3% (inactive) |
| C[C@@H](CN1CCC2(CC1)C(=O)NCN2c1cccc(F)c1)NC(=O)c1cccc2ccccc12 | 81% (inactive) |
| O=C(c1ccc(F)cc1)N(CCN1CCC2(CC1)C(=O)NCN2c1cccc(F)c1)C(=O)c1ccc(F)cc1 | 102% (inactive) |
| C[C@@H](CN1CCC2(CC1)C(=O)NCN2c1cccc(F)c1)NC(=O)Cc1ccc(F)cc1 | 91.1% (inactive) |
| O=C(NCCN1CCC2(CC1)C(=O)NCN2c1cccc(F)c1)c1ccccn1 | 99.8% (inactive) |
| O=C(NCCN1CCC2(CC1)C(=O)NCN2c1cccc(F)c1)c1ccc(Cl)cc1Cl | 116% (inactive) |
| C[C@@H](CN1CCC2(CC1)C(=O)NCN2c1cccc(F)c1)NC(=O)c1ccccc1I | 79.4% (inactive) |
| O=C(NCCN1CCC2(CC1)C(=O)NCN2c1cccc(F)c1)c1cccc2c1OCO2 | 83.3% (inactive) |
| O=C(NCCN1CCC2(CC1)C(=O)NCN2c1cccc(F)c1)c1cccc(C(F)(F)F)c1 | 107% (inactive) |
| O=C(NCCN1CCC2(CC1)C(=O)NCN2c1cccc(F)c1)c1ccc(F)cc1 | 59.4% |
| O=C(NCCN1CCC2(CC1)C(=O)NCN2c1cccc(F)c1)c1cccc([N+](=O)[O-])c1 | 71% (inactive) |
| C[C@@H](CN1CCC2(CC1)C(=O)NCN2c1cccc(F)c1)NC(=O)c1cccc(C(F)(F)F)c1 | 68.8% (inactive) |
| C[C@@H](CN1CCC2(CC1)C(=O)NCN2c1cccc(F)c1)NC(=O)c1ccc(F)cc1F | 48.2% |
| O=C(Cc1ccc(F)cc1)NCCN1CCC2(CC1)C(=O)NCN2c1cccc(F)c1 | 92.5% (inactive) |
| O=C(NCCN1CCC2(CC1)C(=O)NCN2c1cccc(F)c1)c1ccccc1I | 111% (inactive) |
